Results as given in PubChem BioAssay (NCI).
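A five-concentration, 48-hour dose response in 96-well plates underlies each endpoint, interpolated linearly between surrounding concentrations. TGI denotes the concentration required for complete inhibition of growth.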

Legend:
Experiment in all cases: inhibition of tumour cell growth, NCI panel, 48 h
[1] = system: RPMI-8226 leukemia
[2] = system: 786-0 renal
[3] = system: OVCAR-3 ovarian
[4] = system: CCRF-CEM leukemia
[5] = system: SF-268 CNS
[6] = system: MDA-MB-231 breast
[7] = system: MDA-MB-435
[8] = system: NCI/ADR-RES ovarian
[9] = system: DU-145 prostate
[10] = system: NCI-H23 lung
[11] = system: HOP-92 NSCLC
[12] = system: HT29 colon
[13] = system: HCT-116 colon
[14] = system: UO-31 renal
[15] = system: OVCAR-8 ovarian
[16] = system: OVCAR-4 ovarian
[17] = system: SF-295 CNS
[18] = system: MOLT-4 leukemia
[19] = system: HL-60(TB) leukemia
[20] = system: IGROV1 ovarian

SMILES | TGI [1] | TGI [2] | TGI [3] | TGI [4] | TGI [5] | TGI [6] | TGI [7] | TGI [8] | TGI [9] | TGI [10] | TGI [11] | TGI [12] | TGI [13] | TGI [14] | TGI [15] | TGI [16] | TGI [17] | TGI [18] | TGI [19] | TGI [20]
CCOC(=O)c1c(N2CCCC2)[nH]c(=O)c(C(c2cccs2)c2c(O)c(C(=O)OCC)c(N3CCCC3)[nH]c2=O)c1O | > 100 µM | > 100 µM | > 100 µM | > 100 µM | > 100 µM | > 100 µM | > 100 µM | > 100 µM | > 100 µM | > 100 µM | > 100 µM | > 100 µM | > 100 µM | > 100 µM | > 100 µM | > 100 µM | > 100 µM | > 100 µM | – | –
Cc1cc2c(cc1Cl)SC(NNc1ccc([N+](=O)[O-])cc1)=NS2(=O)=O | > 10 µM | > 10 µM | > 10 µM | > 10 µM | > 10 µM | > 10 µM | > 10 µM | > 10 µM | > 10 µM | > 10 µM | – | > 10 µM | > 10 µM | > 10 µM | > 10 µM | > 10 µM | > 10 µM | > 10 µM | > 10 µM | > 10 µM
CCOP(=O)(OCC)/C(C#N)=C/c1c[nH]c2ccccc12 | > 100 µM | > 100 µM | > 100 µM | – | > 100 µM | > 100 µM | > 100 µM | > 100 µM | > 100 µM | > 100 µM | > 100 µM | > 100 µM | > 100 µM | 77.4 µM | > 100 µM | > 100 µM | > 100 µM | – | > 100 µM | > 100 µM
C/C=C/[C@H](O[Si](C)(C)C(C)(C)C)[C@@H](O)/C=C/C(=O)OCC | 12.1 µM | 41.5 µM | 47.6 µM | 35.4 µM | 53.7 µM | 66 µM | 38.5 µM | 76.8 µM | > 100 µM | > 100 µM | 46.3 µM | 39.2 µM | 32.3 µM | 42.5 µM | 34.6 µM | 27.8 µM | 46 µM | 37.6 µM | – | 50.4 µM
C[C@]12CC[C@H](O)CC1=CC[C@@H]1C2CC[C@]2(C)Nc3c(cnn3-c3ccc(F)cc3)CC12 (some centres undefined) | – | 16 µM | > 100 µM | > 100 µM | > 100 µM | > 100 µM | > 100 µM | > 100 µM | > 100 µM | > 100 µM | 63.6 µM | > 100 µM | > 100 µM | > 92.4 µM | > 100 µM | 55.9 µM | 6.82 µM | > 100 µM | > 100 µM | > 100 µM
COc1ccc(NC2CC(C)N(C(=O)c3ccccc3)O2)cc1 (centres undefined) | > 10 µM | > 10 µM | > 10 µM | > 10 µM | > 10 µM | > 10 µM | > 10 µM | > 10 µM | > 10 µM | > 10 µM | – | > 10 µM | > 10 µM | > 10 µM | > 10 µM | > 10 µM | > 10 µM | > 10 µM | > 10 µM | > 10 µM
OC(C/C=N/Nc1ccccc1)(C(F)(F)Cl)C(F)(F)Cl | – | > 10 µM | > 10 µM | > 10 µM | > 10 µM | > 10 µM | > 10 µM | > 10 µM | > 10 µM | > 10 µM | > 10 µM | > 10 µM | > 10 µM | > 10 µM | > 10 µM | > 10 µM | > 10 µM | – | > 10 µM | > 10 µM
CC(C)(C)OC(=O)N(CCCCNCc1ccc2ccccc2c1)CCCNCc1ccc2ccccc2c1 | – | 2.8 µM | – | 2.86 µM | 3.29 µM | 2.28 µM | 3.47 µM | 3.02 µM | 3.1 µM | 3.42 µM | 3.18 µM | 2.17 µM | 2.4 µM | 3.17 µM | 3.08 µM | 3.19 µM | – | 2.28 µM | 0.507 µM | 3.21 µM
O=C(NNC(=O)c1ccccc1O)c1ccc(O)cc1 | > 100 µM | > 100 µM | > 100 µM | > 100 µM | > 100 µM | 69.7 µM | > 100 µM | 90.9 µM | > 100 µM | – | – | > 100 µM | > 100 µM | > 100 µM | > 100 µM | > 100 µM | > 100 µM | > 100 µM | > 100 µM | > 100 µM
Cn1c2ccccc2c(=O)c2[nH]c3ccccc3c21 | > 100 µM | > 100 µM | > 100 µM | > 100 µM | 62.4 µM | > 100 µM | > 100 µM | > 100 µM | > 100 µM | > 100 µM | > 100 µM | > 100 µM | > 100 µM | > 100 µM | > 100 µM | > 100 µM | > 100 µM | 75.9 µM | – | > 100 µM
